System: Apple leaf cuticles
Assay: Apple cuticle penetration test (SOFU, simulation of foliar uptake)
Type: in vitro ADME
Settings: Spray volume 650 l/ha; no additives
Source text: The cuticle penetration test is a further developed and adapted version of the test method SOFU (simulation of foliar uptake) originally described by Schonherr and Baur (Schonherr, J., Baur, P. (1996), Effects of temperature, surfactants and other adjuvants on rates of uptake of organic compounds. In: The plant cuticle—an integrated functional approach, 134-155. Kerstiens, G. (ed.), BIOS Scientific publisher, Oxford); it is well suited for systematic and mechanistic studies on the effects of formulations, adjuvants and solvents on the penetration of agrochemicals.
Apple leaf cuticles were isolated from leaves taken from trees growing in an orchard as described by Schönherr and Riederer (Schönherr, J., Riederer, M. (1986), Plant cuticles sorb lipophilic compounds during enzymatic isolation. Plant Cell Environ. 9, 459-466). Only the astomatous cuticular membranes of the upper leaf surface lacking stomatal pores were obtained. Discs having diameters of 18 mm were punched out of the leaves and infiltrated with an enzymatic solution of pectinase and cellulase. […] After storage for about four weeks the permeability of the cuticles reaches a constant level and the cuticular membranes are ready for the use in the penetration test. […]
An autosampler took aliquots of the acceptor in regular intervals and the content of active ingredient is determined by HPLC (DAD or MS). […]

In the case of `CC(C)(C)C(O)(CCc1ccc(Cl)cc1)Cn1cncn1` (centres unmarked) [tebuconazole], the “Penetration rate of tebuconazole After 24 hours” value is reported as 4%.
In the case of `CCOC(=O)OC1=C(c2cc(C)ccc2C)C(=O)N[C@]12CC[C@@H](OC)CC2` [spirotetramate], the “Penetration rate of spirotetramate After 48 hours” value is reported as 0%.
